The structures appear in SMILES notation.

Results on one compound are retold here after patent EP1452605A1, “Method for determining antiviral activity” (Universiteit Utrecht Holding B.V., priority 2003, dated 2004).

Data set [1] relates to chronically HIV-1-infected U1 cell line. Description: Infection model with the chronically HIV-1-infected monocytic cell line U1, p24 ELISA. The class given is cell-based. Conditions: PMA (100 ng/ml) stimulated, APHS 3, 10 and 30 µM, 2 days. The protocol:
U1 cells (AIDS Reagents, Rockville, […]) were incubated with 100 ng/ml phorbol myristate acetate (PMA; Sigma) or with medium (negative control) for 30 min. Afterwards the cells were washed and seeded in a concentration of 1 × 10^6 cells/ml in RPMI 1640 medium containing 10% FCS and 10 µg/ml gentamycin either with increasing concentrations of APHS or with 30 mM N-acetyl-L-cysteine (NAC; Sigma), which served as a positive control. After 2 days of incubation, samples of the supernatant were collected, inactivated by addition of Empigen and by 30 min incubation at 56°C. The concentration of p24 was determined by ELISA (AMPAK™) as described above.
A general note: In an ELISA, binding on a coated surface is turned into a signal by an enzyme label.

In another data set the test system is 3096. The experiment in a line: Drug susceptibility assay (cell-killing MTT assay) in MT-2 cells. The conditions noted are these: Human immunodeficiency virus 1, MT2, 120 h. Background: Tetrazolium assays rely on reduction of a dye to a coloured formazan, in cell work by metabolically active cells.
Another data set can be described thus: in vitro. The conditions noted are these: human, pbmc.
The subject of another data set is HXB2. Description: Drug susceptibility assay (cell-killing MTT assay) in MT-2 cells. Conditions: Human immunodeficiency virus 1, HXB2, MT2, 120 h.
The next data set deals with 184V. The data set is described as above. The conditions noted are these: Human immunodeficiency virus 1, MT2, 120 h.
The test system of the next data set is FIV UT-113. Description: FIV infection of CrFK cells, FIV p24 ELISA. Conditions: 100 to 0.024 µM, p24 after 6 days. Format: cell-based, Feline immunodeficiency virus (FIV). As to the method: After 6 days of incubation FIV replication was measured by quantification of the p24 viral core antigen in the cell culture supernatant by an FIV p24 enzyme-linked immunoabsorbent assay as described previously ^19.

Data set [2] in a line: Cellular viability assay (MTT) of PBL. The class given is cell-based. Conditions: human, 7 days, read-out: TC50.
For the next data set, the system named is HIV-1HXB2. The experiment in a line: HIV-1 infection of PBL, p24-core antigen ELISA. The class given is cell-based. Conditions: Human immunodeficiency virus 1, 168 h; PBL infected with HIV-1HXB2, p24 antigen after 7 days. The protocol: (§1) To correct for the input virus, an extra control consisting of medium containing the same amount of input virus as added to the cells was included in the experiment. The amount of p24 in this control was subsequently subtracted from the p24 values of the samples in order to obtain the exact amount of p24 produced by the cells. p24-core antigen quantification by ELISA After 2 or 7 days incubation, samples of the supernatants were collected, inactivated by addition of Empigen (Calbiochem, La Jolla, CA, USA) and by heat inactivation at 56°C for 30 min. p24-core antigen concentration was determined by an enzyme linked immunoabsorbent assay (ELISA) (AMPAK™, DAKO, Cambridgeshire, UK) as described previously ^18,19. The optical density values were converted into p24 concentration (ng/ml) with the use of a calibration curve made by serial dilutions of recombinant p24 protein (NIBSC, UK) that was submitted to the same treatment as the samples.

Data set [3] relates to several HIV-1 strains (macrophage-tropic and/or lymphocytotropic). The experiment in a line: HIV-1 replication in primary cells (summary over strains and cell types). Format: cell-based. Conditions: Human immunodeficiency virus 1, read-out: 50% inhibitory concentration values. The protocol: as §1
The test system of data set [4] is HIV-1Ba-L. Description: HIV-1 infection of monocyte-derived macrophages (MDM), p24-core antigen ELISA. Format: cell-based. Conditions: Human immunodeficiency virus 1, Macrophage, 168 h; MDM infected with HIV-1Ba-L, p24 antigen after 7 days. As to the method:
as §1

For the next data set, the system named is Mouse L cells. Description: Cytotoxicity in mouse L cells by microscopic observation. As to the method: After 24h, the cytopatic effect (CPE) of the virus and the cytotoxicity of the compounds were scored by microscopic observation.
Data set [5] deals with HIV-1Ba-L. Description: Combination of HIV-1 inhibitors in HIV-1Ba-L infected PBMC (checker board, CalcuSyn). The conditions noted are these: Human immunodeficiency virus 1, PBMC.
Method: After 7 days incubation, samples of the supernatants were collected, inactivated by addition of Empigen (Calbiochem, La Jolla, CA, USA) and by heat inactivation at 56°C for 30 min. p24-core antigen concentration was determined by an ELISA (AMPAK™, DAKO, Cambridgeshire, UK) as described previously ^39,40. The optical density values were converted into p24 concentration (ng/ml) with the use of a calibration curve made by serial dilutions of recombinant p24 protein (NIBSC, UK) that was submitted to the same treatment as the samples.
After 7 days of incubation, p24 antigen in culture supernatant was quantified by ELISA and cellular viability was assessed by a cytotoxicity assay. fa was calculated for each drug combination after p24 quantification. Using the CalcuSyn program, dose-effect curves were plotted for each drug combination, i.e., each dose was plotted against the corresponding fa value. […] CI values were calculated using the mutually nonexclusive assumption.
The test system of another data set is HEp-2 cells. The class given is cell-based, Human. The protocol: HEp-2 cells were seeded in 96-wells plates in the presence of APHS for 4, 5 and 6 days. Concentrations of HEp-2 cells were determined by microscopic observation in order to have a confluent monolayer at the day of measurement. Afterwards a cellular viability assay was performed on these cells.

The next data set concerns PBMC. The experiment in a line: Cellular viability assay (MTT) of PBMC. The conditions noted are these: PBMC viability, 7 days.

Method for 184V: (§2) The cells were maintained at 37°C, 5% CO2. One day prior to the experiments, the cells were passaged 1:1 in a concentration of 1 × 10^6 cells/ml.
(§3) The genes that contain the drug resistance mutations are excised from the clinical isolates and cloned into the genetic background of HXB2. Thus all tested HIV-1 strains have the same genetic background. […] This strain contains an insertion of two a.a. between codons 68 and 69 of RT as well as an a.a. change at codon 67.
(§4) After 5 days of incubation a cellular viability assay was performed as described above. In this case, the amount of formazan reflects the number of cells protected by the drug against killing by the virus and is used as a read out for drug susceptibility.
Method for 3096: as §2, §3, §4
Method for MT2 cells: After 5 days of incubation a cellular viability assay was performed as described above.

Regarding `CCCCC#CCSc1ccccc1OC(C)=O` [APHS, o-(acetoxyphenyl)hept-2-ynyl sulfide], the “HIV-1 production (p24) by U1 cells” value in data set [1] was “not capable of inhibiting HIV-1 production”. Moreover, the IC50 is 4 µM with 3096; 10 µM with HXB2; 5 µM in the data set on 184V; 12 µM in the data set on HIV-1HXB2; roughly 10 µM in [3]; 12 µM with HIV-1Ba-L [4]. For the same compound, the IC50 is 10 to 15 µM with HIV-1Ba-L [5] (168 h, read-out: IC50 Alone APHS, APHS alone, PBMC, HIV-1Ba-L, 7 days, one value per experiment with the named partner drug); 13 µM in the data set on HIV-1Ba-L [5] (read-out: IC50 of APHS alone (mean), mean over the combination experiments); 5 µM with HIV-1Ba-L [5] (read-out: IC50 of APHS in combination with RTI or PI (mean), mean over the combination experiments). In addition, the CC50 at 168 h was determined as 105 µM in “in vitro” and 147 µM in data set [2]. For the same compound, in the data set on MT2 cells, the “toxicity for MT2 cells” value is recorded as “did not show any significant toxicity”. In addition, the “effect on FIV replication” value in the data set on FIV UT-113 is recorded as “did not show any effect”. The “cytotoxicity by microscopic observation” value with Mouse L cells is “not cytotoxic”. In addition, the “cellular viability significantly decreased at concentrations above” value in the data set on HEp-2 cells is recorded as “above 10 µM”. Moreover, in the data set with HEp-2 cells, the “cytotoxicity for HEp-2 cells” value was “not cytotoxic”. The “cytotoxic at concentrations above” value with PBMC was “above 30 µM”.
